The text below walks through data of patent publication US20180362485A1, “N-HYDROXYFORMAMIDE COMPOUNDS AND COMPOSITIONS COMPRISING THEM FOR USE AS BMP l, TLL1 AND/OR TLL2 INHIBITORS” (GlaxoSmithKline Intellectual Property (No. 2) Limited, priority 2015, published 2018).

Bounds are passed on as bounds.

The test deals with T1, human TLL1 (Homo sapiens, UniProt O43897, I156V/N221S/V284A).
T1 construct: a natural variant of full length native human TLL1 (NM_012464.4); made in house
T1 sequence (O43897 148-1013 I156V/N221S/V284A): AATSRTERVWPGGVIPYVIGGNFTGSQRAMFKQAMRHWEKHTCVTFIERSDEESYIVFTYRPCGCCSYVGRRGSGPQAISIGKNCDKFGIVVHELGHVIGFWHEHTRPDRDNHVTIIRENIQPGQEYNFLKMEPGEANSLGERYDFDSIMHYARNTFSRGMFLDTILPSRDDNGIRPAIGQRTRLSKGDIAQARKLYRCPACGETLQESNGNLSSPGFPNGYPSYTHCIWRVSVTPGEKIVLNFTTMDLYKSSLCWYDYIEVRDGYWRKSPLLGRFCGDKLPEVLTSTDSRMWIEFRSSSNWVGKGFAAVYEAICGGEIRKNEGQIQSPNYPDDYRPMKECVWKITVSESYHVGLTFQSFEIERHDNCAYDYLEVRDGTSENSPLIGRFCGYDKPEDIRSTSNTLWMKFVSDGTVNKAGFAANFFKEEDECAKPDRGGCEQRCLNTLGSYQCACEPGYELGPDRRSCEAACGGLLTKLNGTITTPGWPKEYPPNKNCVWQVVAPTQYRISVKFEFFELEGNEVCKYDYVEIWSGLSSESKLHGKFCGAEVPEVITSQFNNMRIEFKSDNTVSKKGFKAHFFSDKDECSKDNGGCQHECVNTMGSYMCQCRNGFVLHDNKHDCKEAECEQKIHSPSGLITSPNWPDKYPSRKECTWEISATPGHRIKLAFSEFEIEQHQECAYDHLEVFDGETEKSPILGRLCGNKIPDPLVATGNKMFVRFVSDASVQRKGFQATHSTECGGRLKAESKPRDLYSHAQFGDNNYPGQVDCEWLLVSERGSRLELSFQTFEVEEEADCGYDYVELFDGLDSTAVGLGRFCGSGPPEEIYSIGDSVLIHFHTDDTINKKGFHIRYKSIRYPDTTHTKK
Put plainly: Enzyme inhibition assay for human TLL1. To be noted: 2 nM TLL1, 0.8 μM promyostatin peptide substrate; read-out: pIC50, TLL1 enzyme inhibition assay (converted). Type of test: biochemical. The text has this:
Buffer components are purchased from Sigma-Aldrich (St. Louis, Mo.) or an equivalent supplier. The promyostatin peptide substrate is custom synthesized by American Peptide Company (Sunnyvale, Calif.) using the myostatin protein sequence (Uniprot accession number 014793) surrounding the cleavage site reviewed in Hopkins, D. R., et al., 2007 Matrix Biology, 26, 508-523. The procollagen peptide substrate used in the high enzyme BMP1 cleavage assay is custom synthesized by 21st Century Biochemicals (Marlboro, Mass.) using the procollagen Iα protein sequence (Uniprot accession number P02452) surrounding the cleavage site reviewed in Hopkins, D. R., et al., 2007 Matrix Biology, 26, 508-523.
The DNA sequence encoding a natural variant of full length native human TLL1 (NM_012464.4) containing three amino acid substitutions I156V, N221S, V284A is amplified from human heart and brain cDNA and subcloned into the pCDN expression vector. The plasmid is electroporated into CHOE1A cells. […]
Inhibition of human TLL1 and TLL2 recombinant enzymes is measured in 10 ul endpoint assays in 384-well format using the same promyostatin peptide substrate employed in the above Enzyme Inhibition Assay for human BMP1. […] TLL1 and TLL2 reactions are quenched with 5 μl of 0.5 M EDTA and plates are read on a ViewLux (Perkin Elmer) multilabel plate reader using a 480 nm excitation filter and 540 nm emission filter. […]

Take `CCCCC[C@@H](C(=O)NCNC(=O)c1ccc(-c2ccc(C(=O)O)cc2)o1)[C@@H](CC)N(O)C=O` [WO2015/104684 Example 71, 4-(5-((((R)-2-((R)-1-(N-hydroxyformamido)propyl)heptanamido)methyl)carbamoyl)furan-2-yl)benzoic acid]: the IC50 is under 398 nM.
